The values below come from paper PMC10977697 (PLOS ONE, 2024).

Where no end group is shown, it is not given here.

For this assay, the system named is EpCAM. The experiment in a line: Spot phage ELISA, EpCAM. The conditions noted are these: spot phage ELISA signal-to-noise on EpCAM. Type of assay: binding, human. Background: In an ELISA, binding on a coated surface is turned into a signal by an enzyme label.
Turning to “GPTQSLPGFCGGIGYVGGRYCSGTTCQLPEKLKSQCLPGAS (disulfide (positions not given here)) [EpCAM CBD 1]”, the S/N is given as 26.7. For “GPTQSHYGQCGGHGYHGWAICSGTTCQERIRHLSQCLPGAS (disulfide (positions not given here)) [EpCAM CBD 41]” the value was 11.6; for “GPTQSHYGQCGGHGYMGSIKCSGTTCQYVEIVPSQCLPGAS (disulfide (positions not given here)) [EpCAM CBD 66]”, 8.6; for “GPTQSHYGQCGGKGYRGAIRCSGTTCQYIREFTSQCLPGAS (disulfide (positions not given here)) [EpCAM CBD 43]”, 11.4. Consider “GPTQSHYGQCGGMGYHGFIVCSGTTCQHMMPTTSQCLPGAS (disulfide (positions not given here)) [EpCAM CBD 12]”, for which the S/N is given as 19.8. The substance “GCPRILMRCKQDSDCLALCCNERNICG (disulfide (positions not given here)) [EpCAM EET I-II 18]” showed a S/N of 19.7. As for “GPTQSHYGQCGGRGYPGAVVCSGTTCQYAVVPHSQCLPGAS (disulfide (positions not given here)) [EpCAM CBD 14]”, the S/N worked out at 19.4.

Substance “GCPRILMRCKQDSDCLAGCVLNGLVSWYT (disulfide (positions not given here)) [EpCAM EET I-II 38]” came in with a S/N of 7.1.

“GPTQSHYGQCGGLGYTGAIVCSGTTCQWKQLMRSQCLPGAS (disulfide (positions not given here)) [EpCAM CBD 24]” had a S/N of 16.9.

Take “GPTQSHYGQCGGLGYLGMMQCSGTTCQYIQREISQCLPGAS (disulfide (positions not given here)) [EpCAM CBD 29]”: the S/N is given as 15.7. In the case of “GCPRILMRCKQDSDCRPVCG (disulfide (positions not given here)) [EpCAM EET I-II 34]” it was 15.7. For “GPTQSHYGQCGGTGYFGMMRCSGTTCQHVFLERSQCLPGAS (disulfide (positions not given here)) [EpCAM CBD 53]” the value was 9.5. In the case of “GPTQSHYGQCGGKGYPGYIVCSGTTCQMVNQSHSQCLPGAS (disulfide (positions not given here)) [EpCAM CBD 55]” it was 9.4; in that of “GPTQSHYGQCGGDGYVGAILCSGTTCQHVSVFPSQCLPGAS (disulfide (positions not given here)) [EpCAM CBD 56]”, 9.3. Substance “GPTQSHYGQCGGMGYKGIMCSGTTCQHAYIFRSQCLPGAS (disulfide (positions not given here)) [EpCAM CBD 49]” showed a S/N of 10.2. For “GPTQSHYGQCGGSGYHGAILCSGTTCQYVEVSRSQCLPGAS (disulfide (positions not given here)) [EpCAM CBD 10]” the value was 20.7; for “GCRRMGVRCKQDSDCLAGCVCWHDPQCG (disulfide (positions not given here)) [EpCAM EET I-II 3]”, 23; for “GPTQSHYGQCGGQGYYGAIMCSGTTCQWEPARKSQCLPGAS (disulfide (positions not given here)) [EpCAM CBD 31]”, 15.3. For “GPTQSHYGQCGGRGYVGAIACSGTTCQFTPPRSSQCLPGAS (disulfide (positions not given here)) [EpCAM CBD 87]” the value was 6.1; for “GPTQSHYGQCGGSGYYGAIMCSGTTCQYMRAMQSQCLPGAS (disulfide (positions not given here)) [EpCAM CBD 79]”, 7.4; for “GPTQSHYGQCGGFGYHGYIVCSGTTCQSRQYDNSQCLPGAS (disulfide (positions not given here)) [EpCAM CBD 21]”, 17.2. In turn, “GPTQSHYGQCGGHGYVGMIACSGTTCQYLQKVPSQCLPGAS (disulfide (positions not given here)) [EpCAM CBD 13]” registered a S/N of 19.5. For “GPTQSHYGQCGGFGYTGAIGCSGTTCQHVKYMRSQCLPGAS (disulfide (positions not given here)) [EpCAM CBD 7]” the value was 22.6; for “GPTQSHYGQCGGHGYQGIMRCSGTTCQQVYMRSSQCLPGAS (disulfide (positions not given here)) [EpCAM CBD 34]”, 15.0. For “GPTQSHYGQCGGGGYRGVVCSGTTCQPFFVFGSQCLPGAS (disulfide (positions not given here)) [EpCAM CBD 22]” the value was 17.1; for “GPTQSHYGQCGGSGYPGAVVCSGTTCQWRQVPRSQCLPGAS (disulfide (positions not given here)) [EpCAM CBD 18]”, 18.3. As for “GPTQSHYGQCGGSGYYGYIVCSGTTCQFKPSGRSQCLPGAS (disulfide (positions not given here)) [EpCAM CBD 81]”, the S/N is 7.0. “GPTQSHYGQCGGYGYQGMMMCSGTTCQYVRHKVSQCLPGAS (disulfide (positions not given here)) [EpCAM CBD 30]” showed a S/N of 15.6.

On to “GCPRILMRCKQDSDCHAFCG (disulfide (positions not given here)) [EpCAM EET I-II 30]”, for which the S/N is given as 17.5. Regarding “GCPRSHVRVFFSCKQDSDCLAGCVCFQVVC (disulfide (positions not given here)) [EpCAM EET I-II 31]”, the S/N stood at 17.4.

Regarding “GPTQSHYGQCGGRGYVGALMCSGTTCQYIAKPVSQCLPGAS (disulfide (positions not given here)) [EpCAM CBD 4]”, the S/N worked out at 23.5. For “GPTQSHYGQCGGGGYHGIICSGTTCQSREVVRSQCLPGAS (disulfide (positions not given here)) [EpCAM CBD 84]”, the S/N came out at 6.7. For “GPTQSHYGQCGGRGYFGALRCSGTTCQYVTMIESQCLPGAS (disulfide (positions not given here)) [EpCAM CBD 80]” the value was 7.3; for “GPTQSHYGQCGGFGYMGVMVCSGTTCQWIIRPFSQCLPGAS (disulfide (positions not given here)) [EpCAM CBD 25]”, 16.9. For “GPTQSHYGQCGGRGYFGAIICSGTTCQYVQKHMSQCLPGAS (disulfide (positions not given here)) [EpCAM CBD 9]”, the S/N is listed as 20.9. As to “GPTQSHYGQCGGTGYVGYTRCSGTTCQTVPAVMSQCLPGAS (disulfide (positions not given here)) [EpCAM CBD 16]”, the S/N is on record as 18.9.

With “GPTQSHYGQCGGRGYPGRMVCSGTTCQYVAPMISQCLPGAS (disulfide (positions not given here)) [EpCAM CBD 27]”, the S/N came out at 16.6. The substance “GPTQSHYGQCGGPGYYGAIVCSGTTCQHTFITHSQCLPGAS (disulfide (positions not given here)) [EpCAM CBD 57]” registered a S/N of 9.3.

For the substance “GCPRILMRCKQDSDCLAGCVCWPGWPCG (disulfide (positions not given here)) [EpCAM EET I-II 7]”, the S/N was 22. Turning to “GPTQSHYGQCGGPGYVGSIMCSGTTCQFQYIPTSQCLPGAS (disulfide (positions not given here)) [EpCAM CBD 23]”, the S/N amounted to 16.9.

For “GPTQSHYGQCGGRGYPGAMVCSGTTCQWHQPLRSQCLPGAS (disulfide (positions not given here)) [EpCAM CBD 60]”, the S/N is recorded as 8.9. As for “GCFRHYVRCKQDSDCLAGCVCWFDWSCG (disulfide (positions not given here)) [EpCAM EET I-II 13]”, the S/N is on record as 20.8. For “GPTQSHYGQCGGVGYHGMIVCSGTTCQWKPSVYSQCLPDAS (disulfide (positions not given here)) [EpCAM CBD 76]” the value was 7.6. “GCIKNNLRCKQDSDCLAGCVCWYDAACG (disulfide (positions not given here)) [EpCAM EET I-II 32]” displayed a S/N of 16.9. For “GPTQSHYGQCGGXGYNGXIVCSGTTCQYXRKSKSQCLPGAS (disulfide) [EpCAM CBD 61]” the value was 8.8; for “GCPRILMRCKQDSGLSSWLCLCCSASVC (disulfide (positions not given here)) [EpCAM EET I-II 16]”, 20.6. The substance “GPTQSHYGQCGGFGYIGVVRCSGTTCQPHQYFRSQCLPGAS (disulfide (positions not given here)) [EpCAM CBD 32]” showed a S/N of 15.1. For “GPTQSHYGQCGGRGYKGAIVCSGTTCQVAQMYQSQCLPGAS (disulfide (positions not given here)) [EpCAM CBD 86]” the value was 6.6. For “GCPRILMRCKQDSDCLAGCGLSSGLVVW (disulfide (positions not given here)) [EpCAM EET I-II 1]” the value was 24. As to “GCPRILMRCKQDSDCQLVCLFPGLLVG (disulfide (positions not given here)) [EpCAM EET I-II 36]”, the S/N worked out at 14.3. As to “GPTQSHYGQCGGMGYHGAISCSGTTCQPIIFPVSQCLPGAS (disulfide (positions not given here)) [EpCAM CBD 19]”, the S/N is 17.9. In the case of “GCPRILMRCKQDSDCQPICG (disulfide (positions not given here)) [EpCAM EET I-II 21]” it was 19.1. Consider “GCPRILMRCKQDSDLSSWLCLCCYDSVC (disulfide (positions not given here)) [EpCAM EET I-II 37]”, for which the S/N stood at 9.5. The substance “GPTQSHYGQCGGGGYIGAMPCSGTTCQPVRIP*SQCLPGAS (disulfide) [EpCAM CBD 26]” gave a S/N of 16.6.

For the substance “GCPRILMRCKQDSELSSWLCLCCSGLVC (disulfide (positions not given here)) [EpCAM EET I-II 14]”, the S/N stood at 20.8. For “GCPRILMRCKQDSDCLAGCVCWPGWPCG (disulfide (positions not given here)) [EpCAM EET I-II 19]” the value was 19.6.

In turn, “GPTQSHYGQCGGSGYKGVIVCSGTTCQYKIMTMSQCLPGAS (disulfide (positions not given here)) [EpCAM CBD 44]” had a S/N of 11.1.

With “GCPRILMRCKQDSDCLPVCG (disulfide (positions not given here)) [EpCAM EET I-II 17]”, the S/N was found to be 19.8.
